Results reported in paper PMC7910394, “Design of PSMA ligands with modifications at the inhibitor part: an approach to reduce the salivary gland uptake of radiolabeled PSMA inhibitors?” (EJNMMI Radiopharmacy and Chemistry, 2021).

Tests used:
LNCaP cells = experiment: Internalization study of 177Lu-labeled ligands in LNCaP cells, normalized to ([125I]I-BA)KuE; assay type: cell-based, human; conditions: 37 °C; for internalization (in words): time points 0.5 h, 2 h and 4 h; for %Internalization compared to the reference: 1.0 nM 177Lu-compound, normalized to ([125I]I-BA)KuE
Procedure: (§1) PSMA-positive LNCaP cells (300265; Cell Lines Service, Eppelheim, Germany) were cultivated in Dulbecco’s modified Eagle medium/Nutrition Mixture F-12 with GlutaMAX (1/1, DMEM-F12, Thermo Fisher Scientific, Darmstadt, Germany) supplemented with 10% fetal bovine serum (Merck KGaA, Darmstadt, Germany) and kept at 37 °C in a humidified 5% CO2 atmosphere. One day (24 ± 2 h) prior to all in vitro experiments, the cultivated LNCaP cells were harvested using a mixture of trypsin/ethylenediamine-tetraacetic acid (0.05%/0.02%) in PBS (Thermo Fisher Scientific, Darmstadt, Germany) and centrifuged at 1300 rpm (ca. 190×g) for 3 min at room temperature (Heraeus Megafuge 16, Thermo Fisher Scientific, Darmstadt, Germany). After centrifugation, the supernatant was disposed and the cell pellet was resuspended in culture medium. Cells were counted with a Neubauer hemocytometer (Paul Marienfeld GmbH & Co. KG, Lauda-Königshofen, Germany) and seeded in 24-well plates.
(§2) Detailed information on affinity and internalization experiments is provided in the supporting information. […] IC50 values of (^natI-BA)KuE were determined on the same day for monitoring assay performance and to identify abnormal deviations in uptake and/or affinity. […] Data were corrected for non-specific binding and normalized to the specific internalization observed for the radioiodinated reference compound (n = 3).
The culture medium was removed and the cells were washed with 500 µL of DMEM-F12 containing 5% BSA. Afterwards, 200 µL of DMEM-F12 (5% BSA) were added to each well and left to equilibrate at 37 °C for 15 min. 25 µL of DMEM-F12 (5% BSA) were added to each well, followed by the addition of 25 µL of the respective ^177Lu-labeled ligand (10.0 nM in DMEM-F12 (5% BSA)). For blocking PSMA-specific binding and uptake, 25 µL of 2-(phosphonomethyl)pentane-1,5-dioic acid (2-PMPA) (100 µM in DMEM (5% BSA)) instead of DMEM-F12 (5% BSA) were added prior to radiotracer addition. […] Each experiment (control and blockade) was performed in triplicate. […] Incubation was terminated by placing the plate on ice (4 °C, 1 min) and removal of the incubation medium. The cells were washed with 250 µL of ice-cold PBS and the wash medium was combined with the respective supernatant. This fraction represents the amount of free radioligand. 250 µL of ice-cold 2-PMPA (10 µM in PBS) were added and the cells were incubated for 10 min at 4 °C. Afterwards, the cells were rinsed again with 250 µL of ice-cold PBS and the wash medium was combined with the respective supernatant. This fraction represents the amount of cell surface-bound ligand. In the last step, the cells were lysed by addition of 250 µL of 1 M aqueous NaOH. After 20 min, the lysate of each well was transferred to the respective vial as well as 250 µL of 1 M NaOH used for rinsing the well. This fraction represents the amount of internalized radioligand. Quantification of the amount of free, cell surface-bound and internalized activity was performed in a γ-counter.

PSMA = molecular target: T1, PSMA (Homo sapiens, UniProt Q04609); experiment: Competitive binding assay (IC50) on LNCaP cells with ([125I]I-BA)KuE as radioligand; conditions: ([125I]I-BA)KuE 0.2 nM, HBSS (1% BSA), 4 °C, 1 h
T1 construct: host or cells: LNCaP human prostate cancer cells
T1 sequence (Q04609 whole entry): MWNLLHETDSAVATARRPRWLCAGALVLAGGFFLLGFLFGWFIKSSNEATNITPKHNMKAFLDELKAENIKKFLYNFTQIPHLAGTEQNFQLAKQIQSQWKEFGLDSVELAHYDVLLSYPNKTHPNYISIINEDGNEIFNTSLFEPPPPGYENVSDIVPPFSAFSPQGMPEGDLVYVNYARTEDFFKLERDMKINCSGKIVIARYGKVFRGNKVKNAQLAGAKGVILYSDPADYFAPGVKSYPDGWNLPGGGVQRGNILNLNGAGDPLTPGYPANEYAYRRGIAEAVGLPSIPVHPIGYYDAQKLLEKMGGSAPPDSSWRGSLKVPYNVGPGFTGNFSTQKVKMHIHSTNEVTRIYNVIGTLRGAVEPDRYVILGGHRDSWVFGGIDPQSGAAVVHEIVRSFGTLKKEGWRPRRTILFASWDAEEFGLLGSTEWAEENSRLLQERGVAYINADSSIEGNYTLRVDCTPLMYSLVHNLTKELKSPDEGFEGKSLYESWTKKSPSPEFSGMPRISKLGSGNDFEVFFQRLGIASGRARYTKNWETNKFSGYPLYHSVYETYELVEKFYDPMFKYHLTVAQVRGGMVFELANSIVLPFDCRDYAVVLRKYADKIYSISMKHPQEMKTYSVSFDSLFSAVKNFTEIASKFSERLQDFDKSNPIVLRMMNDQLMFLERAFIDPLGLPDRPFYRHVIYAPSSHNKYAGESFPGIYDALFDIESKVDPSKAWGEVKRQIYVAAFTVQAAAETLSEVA
Procedure: as §1, §2
The culture medium was removed and the cells were washed with 500 µL of Hank’s balanced salt solution (HBSS) (Merck KGaA, Darmstadt, Germany), containing 1% bovine serum albumin (BSA) (Merck KGaA, Darmstadt, Germany). Afterwards, 200 µL of HBSS (1% BSA) were added to each well and equilibrated on ice (4 °C) for 15 min. […] Experiments were carried out in triplicates for each concentration. The final concentrations of unlabeled ligand ranged from 10^-11 - 10^-5 M and the final radioligand concentration was 0.2 nM in all binding assays. The cells were incubated for one hour at 4 °C. Incubation was terminated by removal of the incubation medium. The cells were washed with 250 µL of HBSS (1% BSA) and the wash medium was combined with the respective supernatant. This fraction represents the amount of free radioligand. The cells were lysed by addition of 250 µL of 1 M aqueous NaOH. The lysate of each well was transferred to the respective vial as well as 250 µL of 1 M NaOH used for rinsing the well. Quantification of the amount of free and bound activity was performed in a γ-counter. The corresponding IC50 values were calculated using the GraphPad PRISM7 software.

[1] = test system: LNCaP tumor xenograft-bearing CB17-SCID mice; assay type: in vivo, mouse; conditions: 24 h p.i.
Procedure: All animal experiments were conducted in accordance with general animal welfare regulations in Germany (German animal protection act, as amended on 18.05.2018, Art. 141 G v. 29.3.2017 I 626, approval no. 55.2–1-54-2532-71-13) and the institutional guidelines for the care and use of animals. To establish tumor xenografts, LNCaP cells (approx. 10^7 cells) were suspended in 200 μL of a 1/1 mixture (v/v) of DMEM F-12 and Matrigel (BD Biosciences, Heidelberg, Germany) and inoculated subcutaneously onto the right shoulder of 6–8 weeks old CB17-SCID mice (Charles River Laboratories, Sulzfeld, Germany). Mice were used for experiments when tumor size reached 5–10 mm in diameter (3–6 weeks after inoculation).
Approximately 2–10 MBq (0.20 nmol) of the ^177Lu-labeled PSMA inhibitors were injected into the tail vein of LNCaP tumor xenograft-bearing male CB17-SCID mice (n = 3 to 5). They were sacrificed by CO2 asphyxiation and cervical dislocation either 1 h or 24 h post injection (p.i.) (n = 3 for [^177Lu]Lu-5, -6 & -7 (proinhibitor compounds I-III), n = 4 for [^177Lu]Lu-10 (alkyne), n = 5 for [^177Lu]Lu-3 (carbamate I) and n = 5 for [^177Lu]Lu-11 (tetrazole)). Selected organs were removed, weighed and organ activities measured in a γ-counter.
Approximately 2 - 10 MBq (0.20 nmol) of the ^177Lu-labeled PSMA inhibitors were injected into the tail vein of LNCaP tumor xenograft-bearing male CB17-SCID mice (n = 3 to 5). They were sacrificed by CO2 asphyxiation and cervical dislocation either 1 h or 24 h post injection (p.i.) (n = 3 for [^177Lu]Lu-5, -6 & -7 (proinhibitor compounds I-III), n = 4 for [^177Lu]Lu-10 (alkyne) and n = 5 for [^177Lu]Lu-3 (carbamate I) and n = 5 for [^177Lu]Lu-11 (tetrazole)). Selected organs were removed, weighed and organ activities measured in a γ-counter.

[2] = Lipophilicity (log D), shake-flask method; assay type: physicochemical; conditions: n-octanol/PBS pH 7.4, 177Lu-labeled compound, n = 6
Procedure: The log D values were determined, using the shake-flask method as previously described (Wurzer et al. [2020]). The radiolabeled tracer (0.5–1 MBq, 20 μL) was dissolved in 1 mL of a 1/1 mixture (v/v) of PBS (pH 7.4) and n-octanol in a reaction vial (n = 6). After vigorous mixing of the suspension for 3 min at r.t., the vial was centrifuged at 9000 rpm (ca. 7700×g) for 5 min at room temperature (Heraeus Biofuge 15, Thermo Fisher Scientific, Darmstadt, Germany) and 150 μL aliquots of both layers were measured in a ɣ-counter.

[3] = in vivo; cited from earlier work

Compound	internalization (in words) (LNCaP cells; 1 h)	%Internalization compared to the reference (LNCaP cells; 0.5 h)	%Internalization compared to the reference (LNCaP cells; 1 h)	%Internalization compared to the reference (LNCaP cells; 2 h)	%Internalization compared to the reference (LNCaP cells; 4 h)	IC50 (PSMA) [µM]	Biodistribution Heart [1] [% ID/g]	Biodistribution Intestine [1] [% ID/g]	Biodistribution Kidneys [1] [% ID/g]	Biodistribution Liver [1] [% ID/g]	Biodistribution Lung [1] [% ID/g]	Biodistribution Pancreas [1] [% ID/g]	Biodistribution Parotid gland [1] [% ID/g]	Biodistribution Spleen [1] [% ID/g]	Biodistribution Stomach [1] [% ID/g]	Biodistribution Submandibular gland [1] [% ID/g]	Biodistribution Tumor [1] [% ID/g]	log D [2]	other results
CSCC[C@H](NC(=O)CC[C@H](NC(=O)N[C@@H](CCC(=O)N[C@H](CCCNC(=O)CCC(=O)NCCCC[C@@H](NC(=O)[C@@H](CNC(=O)c1ccc([Si](F)(C(C)(C)C)C(C)(C)C)cc1)NC(=O)CN1CCN(CC(=O)[O-])CCN(CC(=O)[O-])CCN(CC(=O)[O-])CC1)C(=O)O)C(=O)O)C(=O)O)C(=O)O)C(=O)O.[Lu+3] [^natLu/[^177Lu]Lu-5]	no internalization could be detected	0.00 ± 0.00%	0.00 ± 0.00%	0.17 ± 0.32%	0.01 ± 0.05%	26 ± 16	0.01 ± 0.00	0.55 ± 0.04	0.48 ± 0.02	0.05 ± 0.00	0.33 ± 0.30	0.01 ± 0.00	0.02 ± 0.00	0.05 ± 0.01	0.14 ± 0.07	0.02 ± 0.01	0.09 ± 0.02	−2.89 ± 0.18	
CCCCCCC(NC(=O)C(CCC(=O)O)NC(=O)NC(CCC(=O)NC(CCCNC(=O)CCC(=O)NCCCCC(NC(=O)C(CNC(=O)c1ccc([Si](F)(C(C)(C)C)C(C)(C)C)cc1)NC(=O)CN1CCN(CC(=O)[O-])CCN(CC(=O)[O-])CCN(CC(=O)[O-])CC1)C(=O)O)C(=O)O)C(=O)O)C(=O)O.[Lu+3] (centres unmarked) [^natLu/[^177Lu]Lu-7]	no internalization could be detected	0.5 h: 0.00 ± 0.00 1 h: 0.00 ± 0.00 2 h: 0.00 ± 0.00 4 h: 0.00 ± 0.00%	0.5 h: 0.00 ± 0.00 1 h: 0.00 ± 0.00 2 h: 0.00 ± 0.00 4 h: 0.00 ± 0.00%	0.5 h: 0.00 ± 0.00 1 h: 0.00 ± 0.00 2 h: 0.00 ± 0.00 4 h: 0.00 ± 0.00%	0.5 h: 0.00 ± 0.00 1 h: 0.00 ± 0.00 2 h: 0.00 ± 0.00 4 h: 0.00 ± 0.00%	6.3 ± 3.6	0.03 ± 0.01	0.10 ± 0.05	2.04 ± 0.75	0.17 ± 0.05	0.04 ± 0.01	0.02 ± 0.00	0.06 ± 0.01	0.08 ± 0.02	0.04 ± 0.01	0.05 ± 0.02	0.14 ± 0.05	−2.37 ± 0.22	Biodistribution Adrenals [1]: 0.03 ± 0.01 % ID/g; Biodistribution Blood [1]: 0.01 ± 0.00 % ID/g; Biodistribution Bone [1]: 0.04 ± 0.01 % ID/g; Biodistribution Muscle [1]: 0.01 ± 0.00 % ID/g
botulinum toxin																			decrease of the SUVmean in the right parotid gland compared to the left (control) [3]: up to 64%
